Assay results as given in ChEMBL document CHEMBL1201862, “PubChem BioAssay data set” (2004).
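The compound was tested at five concentrations on cells cultured in 96-well plates, with a 48-hour exposure period. GI50 = concentration required for 50% inhibition of growth.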 Active and inactive are the calls of the source. No stated cut-off is given here; in the data, active = GI50 up to about 1.1 µM and inactive = higher.

Tests used:
Test in all cases: NCI-60 cell line screen, 48 h
BT-549 = system: BT-549
MDA-N = system: MDA-N
T47D = system: T47D
SNB-78 = system: SNB-78
DLD-1 = system: DLD-1
DMS-273 = system: DMS-273
XF498 = system: XF498
HOP-18 = system: HOP-18

Structure (SMILES): CCC1c2[nH]c3ccccc3c2C[C@H]2C(=O)NC(C)C(=O)N12 (stereo partly specified)
- GI50 (BT-549): > 100 µM (inactive)
- GI50 (MDA-N): > 100 µM (inactive)
- GI50 (T47D): > 100 µM (inactive)

Structure (SMILES): NC(=O)/N=C(\N)NC(=O)c1ccccc1
- GI50 (BT-549): > 100 µM (inactive)
- GI50 (MDA-N): > 100 µM (inactive)
- GI50 (T47D): > 100 µM (inactive)

Structure (SMILES): CC(O)c1cc2c(s1)C(=O)c1ccsc1C2=O (stereo unspecified)
- GI50 (BT-549): 0.0815 µM (active)
- GI50 (MDA-N): 0.0139 µM (active)
- GI50 (T47D): 0.316 µM (active)

Structure (SMILES): C=C1C(=O)C2=CC1CCC(=O)C1(C)CCC(OC(C)=O)C(C)(C)C1CC2O (stereo unspecified)
- GI50 (BT-549): 3.08 µM (inactive)
- GI50 (MDA-N): 1.4 µM (inactive)
- GI50 (T47D): 3.74 µM (inactive)

Structure (SMILES): N#CC1(Nc2ccc(-c3ccc(NC4(C#N)CCCC4)cc3)cc2)CCCC1
- GI50 (BT-549): > 100 µM (inactive)
- GI50 (MDA-N): > 100 µM (inactive)
- GI50 (T47D): > 100 µM (inactive)

Structure (SMILES): Nc1n[nH]c(Nc2ccc(Cl)cc2)c1P(=O)(c1ccccc1)c1ccccc1
- GI50 (MDA-N): 11 µM (inactive)
- GI50 (T47D): 58.7 µM (inactive)

Structure (SMILES): Nc1nc(SCCC/C=C/I)nc2c1ncn2C1OC(COP(=O)(O)O)C(O)C1O (stereo unspecified)
- GI50 (SNB-78): > 100 µM (inactive)
- GI50 (DLD-1): > 100 µM (inactive)
- GI50 (DMS-273): > 100 µM (inactive)
- GI50 (XF498): > 100 µM (inactive)

Structure (SMILES): Cn1c(=O)c2nc(NCCO)cnc2n(C)c1=O
- GI50 (SNB-78): > 100 µM (inactive)
- GI50 (DLD-1): > 100 µM (inactive)
- GI50 (DMS-273): 53.6 µM (inactive)
- GI50 (XF498): 38.9 µM (inactive)

Structure (SMILES): O=c1c(O)c(-c2cc(O)c(O)cc2O)oc2cc(O)c(C3OC(CO)C(O)C(O)C3O)c(O)c12 (stereo unspecified)
- GI50 (BT-549): > 100 µM (inactive)
- GI50 (MDA-N): > 100 µM (inactive)
- GI50 (T47D): > 100 µM (inactive)

Structure (SMILES): O=C(NC(C(F)(F)F)(C(F)(F)F)P(=O)(Cc1ccccc1)Cc1ccccc1)C(C(F)(F)F)C(F)(F)F
- GI50 (MDA-N): 19.5 µM (inactive)
- GI50 (T47D): 34.9 µM (inactive)

Structure (SMILES): CC1=NOC(=O)/C1=C/c1cccc2ccccc12
- GI50 (HOP-18): > 100 µM (inactive)
- GI50 (SNB-78): > 100 µM (inactive)
- GI50 (DLD-1): > 100 µM (inactive)
- GI50 (DMS-273): > 100 µM (inactive)

Structure (SMILES): Cc1ccc(C)n1-c1ccccc1C1C=CN(C(=O)OC(C)(C)C)C=C1
- GI50 (BT-549): 32.7 µM (inactive)
- GI50 (MDA-N): 46.2 µM (inactive)

Structure (SMILES): C[s+]1c2ccccc2c2ccccc21
- GI50 (SNB-78): > 100 µM (inactive)
- GI50 (DMS-273): > 100 µM (inactive)
- GI50 (XF498): > 100 µM (inactive)

Structure (SMILES): O=C1OCC/C1=N/O
- GI50 (HOP-18): > 100 µM (inactive)
- GI50 (SNB-78): > 100 µM (inactive)
- GI50 (DLD-1): > 100 µM (inactive)
- GI50 (DMS-273): > 100 µM (inactive)

Structure (SMILES): COc1ccc(/C=N/NC(=O)O)cc1
- GI50 (BT-549): > 100 µM (inactive)
- GI50 (MDA-N): > 100 µM (inactive)
- GI50 (T47D): > 100 µM (inactive)

Structure (SMILES): CCOC(=O)C1(Cc2c[nH]c3ccccc23)C(O)CCCN1C(C)=O (stereo unspecified)
- GI50 (BT-549): > 100 µM (inactive)
- GI50 (T47D): > 100 µM (inactive)

Structure (SMILES): O=C(O)c1ccccc1/C=N\N=C1NCCCCN1
- GI50 (BT-549): > 100 µM (inactive)
- GI50 (MDA-N): > 100 µM (inactive)
- GI50 (T47D): > 100 µM (inactive)

Structure (SMILES): COc1ccc2nc3c([N+](=O)[O-])ccc(NCCCN(C)C)c3c(N)c2c1
- GI50 (MDA-N): 1.82 µM (inactive)
- GI50 (T47D): 1.92 µM (inactive)

Structure (SMILES): Fc1ccc(Oc2nc3ccccc3nc2-c2ccccc2)cc1
- GI50 (BT-549): 95.3 µM (inactive)

Structure (SMILES): CCOC(=O)/C(=C\c1ccc(N(CCC#N)CCC#N)cc1C)NC(=O)/C=C/c1ccccc1
- GI50 (SNB-78): > 100 µM (inactive)
- GI50 (DLD-1): > 100 µM (inactive)
- GI50 (DMS-273): > 100 µM (inactive)
- GI50 (XF498): > 100 µM (inactive)

Structure (SMILES): NC1CC(=O)c2c(Br)csc21 (stereo unspecified)
- GI50 (BT-549): 33 µM (inactive)
- GI50 (MDA-N): 12.5 µM (inactive)
- GI50 (T47D): > 100 µM (inactive)

Structure (SMILES): O=P1(N(CCCl)CCCl)Oc2c(Cl)cc(Cl)c(Cl)c2Cc2c(Cl)c(Cl)cc(Cl)c2O1
- GI50 (BT-549): > 100 µM (inactive)
- GI50 (MDA-N): 67.8 µM (inactive)
- GI50 (T47D): > 100 µM (inactive)

Structure (SMILES): CC(=O)OCC1OC(n2c3c(cc(C#N)c2=S)CCCCC3)C(OC(C)=O)C(OC(C)=O)C1OC(C)=O (stereo unspecified)
- GI50 (BT-549): > 100 µM (inactive)
- GI50 (MDA-N): > 100 µM (inactive)
- GI50 (T47D): 29.4 µM (inactive)

Structure (SMILES): C[N+]1([O-])[C@H]2CC(OC(=O)[C@H](CO)c3ccccc3)C[C@H]1[C@H]1O[C@H]12 (stereo partly specified)
- GI50 (BT-549): > 100 µM (inactive)
- GI50 (MDA-N): > 100 µM (inactive)
- GI50 (T47D): > 100 µM (inactive)

Structure (SMILES): COc1cc(Oc2nc3ccc(C(F)(F)F)cc3nc2-c2ccccc2)cc(OC)c1OC
- GI50 (BT-549): 20.2 µM (inactive)
- GI50 (MDA-N): 40.7 µM (inactive)
- GI50 (T47D): 54.7 µM (inactive)

Structure (SMILES): CC12CC(=O)C3C(C(=O)C1)C32C (stereo unspecified)
- GI50 (BT-549): > 100 µM (inactive)
- GI50 (MDA-N): > 100 µM (inactive)

Structure (SMILES): CS(=O)(=O)OCC1CCCCCCCCCCC12SCCCS2 (stereo unspecified)
- GI50 (MDA-N): > 100 µM (inactive)
- GI50 (T47D): > 100 µM (inactive)

Structure (SMILES): Cc1c(-c2ccccc2)c(C#N)c2nnn(-c3cccc(Cl)c3)c(=O)n12
- GI50 (BT-549): 88.7 µM (inactive)
- GI50 (MDA-N): > 100 µM (inactive)
- GI50 (T47D): 60.5 µM (inactive)

Structure (SMILES): CC1CC(=O)Nc2ccccc2N1C(=O)C1CC1 (stereo unspecified)
- GI50 (BT-549): > 100 µM (inactive)
- GI50 (MDA-N): > 100 µM (inactive)
- GI50 (T47D): > 100 µM (inactive)

Structure (SMILES): CC1(C)O[C@@H](CCl)C[C@H](C#N)O1
- GI50 (HOP-18): > 100 µM (inactive)
- GI50 (SNB-78): > 100 µM (inactive)
- GI50 (DLD-1): > 100 µM (inactive)
- GI50 (DMS-273): > 100 µM (inactive)
- GI50 (XF498): > 100 µM (inactive)

Structure (SMILES): CC(C)(C)/N=C\N(C=C(c1ccccc1)c1ccccc1)C1CCCCC1
- GI50 (HOP-18): 52.2 µM (inactive)
- GI50 (SNB-78): 69 µM (inactive)
- GI50 (DLD-1): 23.1 µM (inactive)
- GI50 (DMS-273): 46.6 µM (inactive)
- GI50 (XF498): 16.6 µM (inactive)

Structure (SMILES): N#CC(c1nc2ccccc2s1)c1nc(Cl)ncc1Br (stereo unspecified)
- GI50 (BT-549): 25.2 µM (inactive)
- GI50 (MDA-N): 36 µM (inactive)
- GI50 (T47D): 64.7 µM (inactive)
